Paper PMC5832771, “Recognition motif and mechanism of ripening inhibitory peptides in plant hormone receptor ETR1” (Scientific Reports, 2018)
Residues, ends and D or L forms follow the SMILES beside them. No end group written: not given here.

B1: extended peptide NIP-1 (peptide)
peptide: AFPKGKENLASVLKRYKRRL-NH2
notes: source: synthetic peptide, bought: GenScript (TFA salt, >98% HPLC purity)
B2: extended peptide N30P (peptide)
peptide: GRTGTAAGDVAFPKGKENLASVLKRYKRRL-NH2
notes: as for B1
B3: extended peptide N41P (peptide)
peptide: KDVEMAISSRKGRTGTAAGDVAFPKGKENLASVLKRYKRRL-NH2
notes: as for B1

Each molecule was assayed against T1, AtETR1^1–307 (TM–GAF) (Arabidopsis thaliana, UniProt P49333) (assay: biochemical). Details: not given.
T1 construct: made in house; host or cells: E. coli C43 (DE3)
Assay type: binding

Row | Molecule | Kd [nM]
1 | CC(C)C[C@H](NC(=O)[C@H](CCCNC(=N)N)NC(=O)[C@H](CCCNC(=N)N)NC(=O)[C@H](CCCCN)NC(=O)[C@H](Cc1ccc(O)cc1)NC(=O)[C@H](CCCNC(=N)N)NC(=O)[C@H](CCCCN)NC(=O)[C@H](CC(C)C)NC(=O)[C@@H](NC(=O)[C@H](CO)NC(=O)[C@H](C)NC(=O)[C@H](CC(C)C)NC(=O)[C@H](CC(N)=O)NC(=O)[C@H](CCC(=O)O)NC(=O)[C@H](CCCCN)NC(=O)CNC(=O)[C@H](CCCCN)NC(=O)[C@@H]1CCCN1C(=O)[C@H](Cc1ccccc1)NC(=O)[C@H](C)NC(=O)[C@@H](NC(=O)[C@H](CC(=O)O)NC(=O)CNC(=O)[C@H](C)NC(=O)[C@H](C)NC(=O)[C@@H](NC(=O)CNC(=O)[C@@H](NC(=O)[C@H](CCCNC(=N)N)NC(=O)CN)[C@@H](C)O)[C@@H](C)O)C(C)C)C(C)C)C(N)=O [N30P] (H-GRTGTAAGDVAFPKGKENLASVLKRYKRRL-NH2) | 57 ± 19
2 | KDVEMAISSRKGRTGTAAGDVAFPKGKENLASVLKRYKRRL-NH2 [N41P] | 30 ± 10
3 | CC(C)C[C@H](NC(=O)[C@H](CCCNC(=N)N)NC(=O)[C@H](CCCNC(=N)N)NC(=O)[C@H](CCCCN)NC(=O)[C@H](Cc1ccc(O)cc1)NC(=O)[C@H](CCCNC(=N)N)NC(=O)[C@H](CCCCN)NC(=O)[C@H](CC(C)C)NC(=O)[C@@H](NC(=O)[C@H](CO)NC(=O)[C@H](C)NC(=O)[C@H](CC(C)C)NC(=O)[C@H](CC(N)=O)NC(=O)[C@H](CCC(=O)O)NC(=O)[C@H](CCCCN)NC(=O)CNC(=O)[C@H](CCCCN)NC(=O)[C@@H]1CCCN1C(=O)[C@H](Cc1ccccc1)NC(=O)[C@H](C)N)C(C)C)C(N)=O [NIP-1] (H-AFPKGKENLASVLKRYKRRL-NH2) | 68 ± 15

These molecules were tested against T2, AtETR1^1–307 (TM–GAF) (Arabidopsis thaliana, UniProt P49333 1-307, Alexa Fluor 488 C5 maleimide (thiol-reactive) label) (assay: MST; Alexa Fluor 488-labelled AtETR1 construct at 25 nM, peptide titrated; 50 mM Tris/HCl pH 8.0, 300 mM NaCl, 0.15 g/L fos-choline-16; 23-25 °C; temperature jump evaluated, one-binding-site model). Details: both partners purified.
T2 construct: pTEV-16b: N-terminal His10, linker SSGH, TEV site ENLYFQG; no cleavage described; source: E. coli C43 (DE3), purified (membranes solubilised in fos-choline-16, Ni-NTA HisTrap)
T2 sequence (looked up): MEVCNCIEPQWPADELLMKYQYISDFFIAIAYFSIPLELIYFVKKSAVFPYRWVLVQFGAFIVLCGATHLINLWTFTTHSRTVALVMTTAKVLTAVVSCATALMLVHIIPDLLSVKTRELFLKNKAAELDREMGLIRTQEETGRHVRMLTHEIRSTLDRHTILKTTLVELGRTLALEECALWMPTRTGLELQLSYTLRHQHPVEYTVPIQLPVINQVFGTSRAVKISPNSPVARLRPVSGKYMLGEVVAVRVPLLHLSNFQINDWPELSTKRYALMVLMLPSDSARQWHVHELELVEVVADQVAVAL

Row | Molecule | binding result
4 | B1 | binds
5 | B2 | binds
6 | B3 | binds
